Test results reported in publication PMC10143053, “Probing the Interactions of 31 Mycotoxins with Xanthine Oxidase: Alternariol, Alternariol-3-Sulfate, and α-Zearalenol Are Allosteric Inhibitors of the Enzyme” (Toxins, 2023).
Read-outs that look alike come from different tables or passages of the source.

Molecular target: T1, xanthine oxidase (Bos taurus, UniProt P80457)
T1 construct: gene XDH
Test: biochemical

T1 sequence (P80457 2-1332): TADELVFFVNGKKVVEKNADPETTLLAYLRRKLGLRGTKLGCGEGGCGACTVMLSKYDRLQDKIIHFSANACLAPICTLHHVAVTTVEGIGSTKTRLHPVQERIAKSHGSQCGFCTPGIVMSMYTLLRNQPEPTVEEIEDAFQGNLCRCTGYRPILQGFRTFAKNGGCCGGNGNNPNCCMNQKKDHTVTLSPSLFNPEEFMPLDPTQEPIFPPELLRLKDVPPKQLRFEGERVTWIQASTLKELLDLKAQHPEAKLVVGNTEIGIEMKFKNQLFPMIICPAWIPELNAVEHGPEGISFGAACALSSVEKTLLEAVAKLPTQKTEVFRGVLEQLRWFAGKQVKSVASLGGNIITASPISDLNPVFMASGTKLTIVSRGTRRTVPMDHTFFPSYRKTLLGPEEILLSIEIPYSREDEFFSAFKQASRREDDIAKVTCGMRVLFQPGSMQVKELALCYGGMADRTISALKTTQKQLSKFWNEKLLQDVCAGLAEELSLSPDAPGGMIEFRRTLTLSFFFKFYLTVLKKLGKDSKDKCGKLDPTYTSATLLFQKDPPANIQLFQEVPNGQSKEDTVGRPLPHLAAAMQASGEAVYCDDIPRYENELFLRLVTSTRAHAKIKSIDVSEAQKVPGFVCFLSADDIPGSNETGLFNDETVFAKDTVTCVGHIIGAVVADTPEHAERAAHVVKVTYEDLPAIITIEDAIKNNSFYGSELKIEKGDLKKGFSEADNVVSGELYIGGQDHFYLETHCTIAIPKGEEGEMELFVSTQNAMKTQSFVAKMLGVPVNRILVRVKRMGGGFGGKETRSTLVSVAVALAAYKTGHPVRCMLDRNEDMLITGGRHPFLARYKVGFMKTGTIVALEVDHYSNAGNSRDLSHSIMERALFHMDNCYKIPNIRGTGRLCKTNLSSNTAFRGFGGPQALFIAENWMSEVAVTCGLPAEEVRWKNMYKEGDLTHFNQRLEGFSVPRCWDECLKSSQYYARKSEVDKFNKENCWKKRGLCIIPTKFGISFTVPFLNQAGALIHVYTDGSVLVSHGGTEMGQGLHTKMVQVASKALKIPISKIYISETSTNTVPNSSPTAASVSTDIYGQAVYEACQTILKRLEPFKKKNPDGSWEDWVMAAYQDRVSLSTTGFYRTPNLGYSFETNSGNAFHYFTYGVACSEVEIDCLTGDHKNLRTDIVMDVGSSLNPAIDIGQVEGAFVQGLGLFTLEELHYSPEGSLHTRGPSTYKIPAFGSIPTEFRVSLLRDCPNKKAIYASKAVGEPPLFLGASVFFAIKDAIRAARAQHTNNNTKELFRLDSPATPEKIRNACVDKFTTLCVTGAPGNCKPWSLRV

| SMILES | IC50 (read-out: IC50) [µM] | IC50 [µM] |
| --- | --- | --- |
| Cc1cc(OS(=O)(=O)O)cc2oc(=O)c3c(O)cc(O)cc3c12 [AS, alternariol-3-sulfate] | 15 | – |
| Cc1cc(O)cc2oc(=O)c3c(O)cc(O)cc3c12 [AOH, alternariol] | – | 10.6 |
| C[C@H]1CCC[C@H](O)CCC/C=C/c2cc(O)cc(O)c2C(=O)O1 [α-ZEL, α-zearalenol] | 17.1 | – |
